# Assay results published in US20240301090A1, “COMPOSITIONS AND METHODS FOR TREATING A MEDICAL CONDITION” (priority 2021, published 2024).
# B1: PACE4 secreted by PANC-1 pancreatic cells (in conditioned medium) (protein)
# chain: QVRSDPQALYFNDPIWSNMWYLHCGDKNSRCRSEMNVQAAWKRGYTGKNVVVTILDDGIERNHPDLAPNYDSYASYDVNGNDYDPSPRYDASNENKHGTRCAGEVAASANNSYCIVGIAYNAKIGGIRMLDGDVTDVVEAKSLGIRPNYIDIYSASWGPDDDGKTVDGPGRLAKQAFEYGIKKGRQGLGSIFVWASGNGGREGDYCSCDGYTNSIYTISVSSATENGYKPWYLEECASTLATTYSSGAFYERKIVTTDLRQRCTDGHTGTSVSAPMVAGIIALALEANSQLTWRDVQHLLVKTSRPAHLKASDWKVNGAGHKVSHFYGFGLVDAEALVVEAKKWTAVPSQHMCVAASDKRPRSIPLVQVLRTTALTSACAEHSDQRVVYLEHVVVRTSISHPRRGDLQIYLVSPSGTKSQLLAKRLLDLSNEGFTNWEFMTVHCWGEKAEGQWTLEIQDLPSQVRNPEKQGKLKEWSLILYGTAEHPYHTFSAHQSRSRMLELSAPELEPPKAALSPSQVEVPEDEEDYTAQSTPGSANILQTSVCHPECGDKGCDGPNADQCLNCVHFSLGSVKTSRKCVSVCPLGYFGDTAARRCRRCHKGCETCSSRAATQCLSCRRGFYHHQEMNTCVTLCPAGFYADESQKNCLKCHPSCKKCVDEPEKCTVCKEGFSLARGSCIPDCEPGTYFDSELIRCGECHHTCGTCVGPGREECIHCAKNFHFHDWKCVPACGEGFYPEEMPGLPHKVCRRCDENCLSCAGSSRNCSRCKTGFTQLGTSCITNHTCSNADETFCEMVKSNRLCERKLFIQFCCRTCLLAG
# Experiments:
# [1] = system: αT3-1 gonadotrope cells; assay: mCherry DNA delivery in mixed culture, FACS: αT3-1 gonadotrope cells; format: cell-based, murine; conditions: for delivery of DNA into the cells: GnRH-crosslinked peptides; for αT3-1 gonadotrope cells expressing mCherry: mixed 1:10 with MEFs, 1.5 hours incubation, FACS after 48 hours
# Procedure: (§1) Following 48 hours, cell were sorted by FACS to determine the numbers of cells expressing each fluorescent protein in a quantitative manner. The mCherry expression was detected in 58% of the αT3-1 gonadotrope cells, and in 3% of the MEFs.
# (§2) Transfection with delivery peptides—Mixed cell cultures, in which the gonadotropes comprise ˜10% of the cells, as in the pituitary gland, were transferred to media without FCS or antibiotics and pre-incubated for 1.5 hours prior to transfection. The DNA: peptide mix (ratio 1:5; for every 1 μg DNA [mCherry or KRAB-Sf1], 5 μg peptide was used) was incubated for 5 minutes and then added to the cells. Following 1.5 hours the media was removed and replaced with fresh complete media. Cells were collected 24-48 hours later for counting by FACS to determine specificity and efficacy of the delivery, or after 2 weeks for gene expression analysis by qPCR. Further optimization in the mixed cell cultures utilized GnRH-crosslinked Peptide2 mixed 1:10 with non-crosslinked Peptide 2 to attain maximal efficiency and targeting specificity.
# (§3) To test whether the newly designed GnRH-carrier might deliver DNA specifically to GnRH receptor-expressing cells, it was first applied to αT3-1 gonadotrope cells and Egr1 mRNA levels measured as a readout for GnRHR binding. […] Following, cells were sorted and counted by FACS to determine the number of cells expressing the delivered DNA in an unbiased manner. After optimization, the number of gonadotrope cells that were transfected reached around 58%, while only 3% of MEF cells expressed the mCherry (FIG. 12B). Assuming 80% of the αT3-1 indeed express the GnRH receptor, the targeting was successful in 72.5% of the GnRH receptor-expressing cells.
# [2] = molecular target: T1, GnRH receptor (GnRHR) (Mus musculus, UniProt Q01776); assay: Egr1 mRNA induction as readout of GnRHR binding in αT3-1 cells; format: cell-based, murine; design: endogenous in cells; host or cells: αT3-1 gonadotrope cell line; conditions: αT3-1 gonadotrope cells
# T1 sequence (Q01776 1-327): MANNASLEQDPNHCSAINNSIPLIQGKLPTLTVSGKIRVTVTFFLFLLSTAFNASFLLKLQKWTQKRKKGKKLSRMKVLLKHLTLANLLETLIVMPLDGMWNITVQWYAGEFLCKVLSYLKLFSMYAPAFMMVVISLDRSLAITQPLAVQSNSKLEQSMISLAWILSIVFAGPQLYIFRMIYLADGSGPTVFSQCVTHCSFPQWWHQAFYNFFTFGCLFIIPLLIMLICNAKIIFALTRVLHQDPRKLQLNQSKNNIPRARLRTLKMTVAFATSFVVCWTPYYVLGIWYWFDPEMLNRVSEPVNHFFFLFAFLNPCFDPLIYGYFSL
# Procedure: as §1
# RT-PCR—Real-time quantitative PCR was performed following RNA extraction (Trizol, Invitrogen followed by Zymo RNA purification kit+DNase) and reverse transcriptase (qScript cDNA synthesis kit, Quanta) using polymerase (2×qPCRBIO Fast qPCR SyGreen Blue Mix, Hi-ROX, PCR Biosystems) and the primers shown in Table 2 hereinbelow. Values were calculated using DNA standard curves and normalized to levels of Rplp0.
# as §3
# [3] = system: MEFs; assay: mCherry DNA delivery in mixed culture, FACS: MEFs; format: cell-based; conditions: mixed culture with αT3-1, 1.5 hours incubation, FACS after 48 hours
# Procedure: as §1
# as §2, with “Further optimization in the mixed cell cultures utilized GnRH-crosslinked Peptide2 mixed 1:10 with non-crosslinked Peptide 2 to attain maximal efficiency and targeting specificity.” left out
# To test whether the newly designed GnRH-carrier might deliver DNA specifically to GnRH receptor-expressing cells, it was first applied to αT3-1 gonadotrope cells and Egr1 mRNA levels measured as a readout for GnRHR binding. […] Following, cells were sorted and counted by FACS to determine the number of cells expressing the delivered DNA in an unbiased manner. […]
# [4] = system: T2, Boc-Arg-Val-Arg-Arg-MCA reporter peptide substrate
# T2 sequence: RVRR
# [5] = system: LβT2 cells; assay: DNA delivery into LβT2 cells (qPCR of GFP transcript); format: cell-based; conditions: CPP packaged with DNA construct
# Procedure: FIG. 8A is a schematic representation of a MDP containing protamine as a cell penetrating peptide (CPP), a NLS sequence and C-terminal cysteine cross-linked to GnRHLys6. […] Results are shown as mean±SEM, n=3. […] In FIG. 8E, LβT2 cells were treated with the MDP at two concentrations (200 ng DNA+300 ng MDP or 1 μg DNA+1.5 μg MDP), or 200 ng DNA was transfected using Polyjet reagent (positive control). Following 72 hours, RNA was extracted, purified and treated with DNAse, and qPCR performed using primers targeting the adaptor and GFP, and then by nested PCR targeting just the GFP. Results are shown as mean±SEM, n=3.
# (§4) FIG. 9A is a schematic representation of the CPP (NF51) cross-linked to GnRH using this approach and then packaged with the DNA. In FIG. 9B, LβT2 or MEF cells were treated with the NF51-DNA alone, or after its crosslinking to GnRH Lys6. PCR was carried out as in FIG. 8E. Also shown are mRNA levels in samples that lacked the reverse transcriptase (RT).
# The delivery delivery proteins—the minimal delivery protein (MDP) chimeric protein (protamine and NLS, SEQ ID NO: 89) was synthesized by GL Biochem. It was crosslinked to GnRH Lys6 analog (SEQ ID NO: 9, Sigma), via the Lys^6 of the GnRH and the C-terminal Cys of the above protein using sulfo-GMBS. The crosslinked protein was dialyzed against PBS. […]
# [6] = system: MEF cells; assay: DNA delivery into MEF cells (qPCR of GFP transcript); format: cell-based; conditions: CPP packaged with DNA construct
# Procedure: as §4
# The delivery delivery proteins—the minimal delivery protein (MDP) chimeric protein (protamine and NLS, SEQ ID NO: 89) was synthesized by GL Biochem. It was crosslinked to GnRH Lys6 analog (SEQ ID NO: 9, Sigma), via the Lys^6 of the GnRH and the C-terminal Cys of the above protein using sulfo-GMBS. The crosslinked protein was dialyzed against PBS. NF51 ([stearyl-AGYLLG]-delta-[…], SEQ ID NO: 103 conjugated through Gly6 to the δ-NH2 group of ornithine 1 of SEQ ID NO: 100) was purchased commercially (Icosagen) and cross-linked to GnRH Lys6 using Traut reagent (Pierce) followed by sulfo-GMBS (Thermo Fisher). Peptide 1 comprises the same CPP sequence as NF51 with a terminal cysteine (stearyl-AGYLLG)-delta-[…]-NH2, SEQ ID NO: 103 conjugated through Gly6 to the δ-NH2 group of ornithine 1 of SEQ ID NO: 101) for direct cross-linking, and Peptide 2 contains also the PACE cleavage (stearyl-AGYLLG)-delta-[…]-NH2, SQ ID NO: 103 conjugated through Gly6 to the δ-NH2 group of ornithine 1 of SEQ ID NO: 102). […]
# [7] = molecular target: T3, Boc-Arg-Val-Arg-Arg-MCA reporter peptide substrate
# T3 chain: RVRR
molecule,measurement,setting,value
(stearyl-AGYLLG)-delta-OINLKALAALAKKILC-NH2 [Peptide 1],delivery of DNA into the cells,[1],could deliver some DNA into the cells
same,Egr1 mRNA activation (GnRHR binding),[2],also activated the receptor
(stearyl-AGYLLG)-delta-OINLKALAALAKKILRVRRC-NH2 [GnRH Lys6-Peptide 2],delivery of DNA into the cells,[1],could deliver some DNA into the cells
same,successful targeting of GnRH receptor-expressing cells,[1]; assuming 80% of the αT3-1 express the GnRH receptor,72.5%
same,specificity of DNA delivery to gonadotropes,[1]; compared with peptide without PACE4 cleavage site,much more specific to gonadotropes
same,αT3-1 gonadotrope cells expressing mCherry,[1],58%
same,αT3-1 gonadotrope cells expressing mCherry,[1]; listed as Peptide 2,around 58%
same,MEFs expressing mCherry,[3],3%
same,Egr1 mRNA activation (GnRHR binding),[2],activated Egr1 mRNA
PACE4 secreted by LβT2 gonadotrope cells (in conditioned medium),fluorescence on cleavage of the substrate (380 nm ex/460 nm em),[4],cutting the reporter and emitting fluorescence at a much higher level than seen in the incubation media of MEF cells
"[stearyl-AGYLLG]-delta-OINLKALAALAKKIL [NF51, reference compound]",transfection of LβT2 gonadotrope cells,[5],highly efficient
same,transfection of MEF cells,[6],highly efficient
B1,fluorescence on cleavage of the substrate,[7],cutting the reporter and emitting fluorescence at a much higher levels than the HEK cells
